Laboratory results reported in ChEMBL document CHEMBL1201862, “PubChem BioAssay data set” (2004).
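Growth conditions: 96-well plates. Treatment: test compound, 48 hours, 5 concentrations. Analysis: linear interpolation between bracketing concentrations; unreached endpoints set to highest concentration. GI50 = concentration required for 50% inhibition of growth.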 Calls of active or inactive are those of the source. Rule as the data show it: active = GI50 up to about 1.1 µM and inactive = higher.

How the values were obtained:
Assay in all cases: NCI-60 cell line screen, 48 h
SK-OV-3 = test system: SK-OV-3
MDA-N = test system: MDA-N
TK-10 = test system: TK-10
786-0 = test system: 786-0
ACHN = test system: ACHN
HL-60 = test system: HL-60
NCI-H226 = test system: NCI-H226
OVCAR-5 = test system: OVCAR-5
UACC-257 = test system: UACC-257
SN12C = test system: SN12C
MOLT-4 = test system: MOLT-4
HCC 2998 = test system: HCC 2998
SF-539 = test system: SF-539
NCI-H23 = test system: NCI-H23
NCI-H460 = test system: NCI-H460
CAKI-1 = test system: CAKI-1
NCI-H522 = test system: NCI-H522
COLO 205 = test system: COLO 205
BT-549 = test system: BT-549
Hs-578T = test system: Hs-578T

For COc1ccc(NC2Oc3cc4c(cc3C(c3cc(OC)c(OC)c(OC)c3)C2C)OCO4)cc1 (stereo not drawn), the GI50 (SK-OV-3) was 0.948 µM (active), the GI50 (MDA-N) was 0.0811 µM (active) and the GI50 (TK-10) was 5.33 µM (inactive). The GI50 (786-0) was 0.544 µM (active), the GI50 (ACHN) was 0.897 µM (active) and the GI50 (HL-60) was 0.248 µM (active). The GI50 (NCI-H226) was 0.552 µM (active), the GI50 (OVCAR-5) was 2.17 µM (inactive) and the GI50 (UACC-257) was 0.605 µM (active). For the same compound, the GI50 (SN12C) was 0.541 µM (active), the GI50 (MOLT-4) was 0.422 µM (active) and the GI50 (HCC 2998) was 0.738 µM (active). For the same compound, the GI50 (SF-539) was 0.222 µM (active), the GI50 (NCI-H23) was 0.847 µM (active) and the GI50 (NCI-H460) was 0.429 µM (active). For the same compound, the GI50 (CAKI-1) was 0.51 µM (active), the GI50 (NCI-H522) was 0.311 µM (active) and the GI50 (COLO 205) was 0.386 µM (active). The GI50 (BT-549) was 1.04 µM (active) and the GI50 (Hs-578T) was 0.398 µM (active).

For O=C(O[C@H](/C=C/c1ccccc1)P1(=O)N(Cc2ccccc2)[C@@H]2CCCC[C@H]2N1Cc1ccccc1)c1ccccc1, the GI50 (SK-OV-3) was 5.41 µM (inactive), the GI50 (MDA-N) was 3.68 µM (inactive) and the GI50 (TK-10) was 38.9 µM (inactive). For the same compound, the GI50 (786-0) was 3.83 µM (inactive), the GI50 (ACHN) was 3.94 µM (inactive) and the GI50 (HL-60) was 3.66 µM (inactive). For the same compound, the GI50 (NCI-H226) was 2.61 µM (inactive), the GI50 (OVCAR-5) was 4.17 µM (inactive) and the GI50 (UACC-257) was 7.87 µM (inactive). For the same compound, the GI50 (SN12C) was 3.07 µM (inactive), the GI50 (HCC 2998) was 5.9 µM (inactive) and the GI50 (SF-539) was 2.98 µM (inactive). For the same compound, the GI50 (NCI-H23) was 2.47 µM (inactive), the GI50 (NCI-H460) was 3.46 µM (inactive) and the GI50 (CAKI-1) was 2.16 µM (inactive). The GI50 (NCI-H522) was 3.95 µM (inactive), the GI50 (COLO 205) was 2.17 µM (inactive) and the GI50 (BT-549) was 4.55 µM (inactive). For the same compound, the GI50 (Hs-578T) was 6.93 µM (inactive).

For Clc1ccc(CCN[C@H]2CCCC[C@H]2N2CCCC2)cc1Cl, the GI50 (SK-OV-3) was 22.8 µM (inactive), the GI50 (MDA-N) was 16.2 µM (inactive) and the GI50 (TK-10) was 7.19 µM (inactive). The GI50 (786-0) was 24 µM (inactive), the GI50 (ACHN) was 38.6 µM (inactive) and the GI50 (HL-60) was 20.1 µM (inactive). For the same compound, the GI50 (NCI-H226) was 21.1 µM (inactive), the GI50 (OVCAR-5) was 20.6 µM (inactive) and the GI50 (UACC-257) was 12 µM (inactive). For the same compound, the GI50 (SN12C) was 20.2 µM (inactive), the GI50 (MOLT-4) was 24.4 µM (inactive) and the GI50 (HCC 2998) was 8.24 µM (inactive). For the same compound, the GI50 (SF-539) was 28.4 µM (inactive), the GI50 (NCI-H23) was 23.8 µM (inactive) and the GI50 (NCI-H460) was 14.9 µM (inactive). For the same compound, the GI50 (CAKI-1) was 27.4 µM (inactive), the GI50 (NCI-H522) was 17.3 µM (inactive) and the GI50 (COLO 205) was 13.6 µM (inactive). The GI50 (BT-549) was 26.2 µM (inactive) and the GI50 (Hs-578T) was 39.6 µM (inactive).

O=c1ccn(C/C=C/c2ccccc2)c(=S)n1C/C=C/c1ccccc1 was tested, and the GI50 (SK-OV-3) was > 100 µM (inactive), the GI50 (MDA-N) was 47.4 µM (inactive) and the GI50 (TK-10) was > 100 µM (inactive). The GI50 (786-0) was > 100 µM (inactive), the GI50 (ACHN) was > 100 µM (inactive) and the GI50 (HL-60) was 13.8 µM (inactive). For the same compound, the GI50 (NCI-H226) was > 100 µM (inactive), the GI50 (OVCAR-5) was > 100 µM (inactive) and the GI50 (UACC-257) was 32.8 µM (inactive). The GI50 (SN12C) was 31.3 µM (inactive), the GI50 (MOLT-4) was 50.4 µM (inactive) and the GI50 (HCC 2998) was 50.7 µM (inactive). The GI50 (NCI-H23) was 33.3 µM (inactive), the GI50 (NCI-H460) was 80 µM (inactive) and the GI50 (CAKI-1) was > 100 µM (inactive). For the same compound, the GI50 (NCI-H522) was 67.8 µM (inactive), the GI50 (COLO 205) was 54 µM (inactive) and the GI50 (BT-549) was 68.2 µM (inactive). For the same compound, the GI50 (Hs-578T) was > 100 µM (inactive).
